Where a SMILES comes first, the peptide text is derived from it. Bridges are numbered along the chain shown (N, C = ends). [ ]: non-standard residue; d: D form. The star is where a group is joined. Phe(4-CONH2) = NC(=O)c1ccc(C[C@H](N)C(=O)O)cc1; Phe(4-COOH) = N[C@@H](Cc1ccc(C(=O)O)cc1)C(=O)O; Bip = N[C@@H](Cc1ccc(-c2ccccc2)cc1)C(=O)O; Phe(4-NH2) = Nc1ccc(C[C@H](N)C(=O)O)cc1; Phe(3-Me) = Cc1cccc(C[C@H](N)C(=O)O)c1; His(π-Me) = Cn1cncc1C[C@H](N)C(=O)O; Val(3-OH) = CC(C)(O)[C@H](N)C(=O)O; hPhe = N[C@@H](CCc1ccccc1)C(=O)O; 3Pal = N[C@@H](Cc1cccnc1)C(=O)O; 4Pal = N[C@@H](Cc1ccncc1)C(=O)O; 2Thi = N[C@@H](Cc1cccs1)C(=O)O; Aad = N[C@@H](CCCC(=O)O)C(=O)O; Cha = N[C@@H](CC1CCCCC1)C(=O)O; Cit = NC(=O)NCCC[C@H](N)C(=O)O; Carboxymethyl = O=C(O)C*; NMeA = CN[C@@H](C)C(=O)O; Aun = NCCCCCCCCCCC(=O)O; Dab = NCC[C@H](N)C(=O)O
molecular target: T1, PD-1/PD-L1 interaction (PE-labeled human PD-L1-Ig binding to Jurkat cell line over-expressing human PD-1) (Homo sapiens, UniProt Q15116); test: Jurkat-PD-1 Cell Binding High-Content Screening Assay (CBA); settings: Jurkat-hPD-1 cells, PE-labeled PD-L1-Ig 20 nM final; read-out: Jurkat HPD1 PDL1 IC50
T1 construct: expressed in transfected cells; host or cells: Jurkat
T1 sequence (Q15116 25-288): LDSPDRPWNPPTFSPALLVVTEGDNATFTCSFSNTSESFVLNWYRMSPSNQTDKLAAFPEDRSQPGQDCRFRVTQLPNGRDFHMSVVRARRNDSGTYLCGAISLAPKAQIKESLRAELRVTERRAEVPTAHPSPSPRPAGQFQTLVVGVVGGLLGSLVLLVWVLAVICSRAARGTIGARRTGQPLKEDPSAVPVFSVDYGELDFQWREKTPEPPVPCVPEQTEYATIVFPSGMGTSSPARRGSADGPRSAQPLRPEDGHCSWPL
Method in brief: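 Compound is added first to the PD-1-expressing Jurkat cells and held 2 h at 37 °C in serum-containing DMEM. The fluorescent PD-L1 fusion follows at 20 nM final for 1 h. Fixed, Hoechst-stained cells are then imaged for bound label.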

First: Cc1cccc(C[C@@H]2NC(=O)[C@H](CC(=O)O)NC(=O)[C@H](Cc3ccc(OCC(=O)O)cc3)NC(=O)[C@H](CCCNC(N)=O)NC(=O)CSC[C@@H](C(=O)N[C@@H](CCN)C(=O)NCCCCCCCCCCC(=O)O)NC(=O)[C@H](CO)NC(=O)[C@H](C(C)C)NC(=O)[C@H](CC3CCCCC3)NC(=O)[C@H](CCN)NC(=O)[C@@H](CC(C)C)NC(=O)[C@H](C)N(C)C(=O)[C@H](Cc3ccc(O)cc3)NC(=O)[C@H](Cc3ccc(-c4ccccc4)cc3)NC(=O)[C@H](Cc3ccc(OCC(=O)O)cc3)NC2=O)c1 [Example 1275] ({CH2CO}-[Cit]Y(Carboxymethyl)D[Phe(3-Me)]Y(Carboxymethyl)[Bip]Y[NMeA][dL][Dab][Cha]VSC[Dab][Aun]-OH; thioether N-14)
Second: Cc1cccc(C[C@@H]2NC(=O)[C@H](CC(=O)O)NC(=O)[C@H](Cc3ccc(OCC(=O)O)cc3)NC(=O)[C@H](CCCC(=O)O)NC(=O)CSC[C@@H](C(=O)N[C@@H](CCN)C(=O)NCCCCCCCCCCC(=O)O)NC(=O)[C@H](CO)NC(=O)[C@H](C(C)C)NC(=O)[C@H](CC3CCCCC3)NC(=O)[C@H](CCN)NC(=O)[C@@H](CC(C)C)NC(=O)[C@H](C)N(C)C(=O)[C@H](Cc3ccc(O)cc3)NC(=O)[C@H](Cc3ccc(-c4ccccc4)cc3)NC(=O)[C@H](Cc3ccc(OCC(=O)O)cc3)NC2=O)c1 [Example 1280] ({CH2CO}-[Aad]Y(Carboxymethyl)D[Phe(3-Me)]Y(Carboxymethyl)[Bip]Y[NMeA][dL][Dab][Cha]VSC[Dab][Aun]-OH; thioether N-14)
The IC50 of the first is 7.6-fold higher: 223 nM for the first, 29.3 nM for the second.

First: Cc1cccc(C[C@@H]2NC(=O)[C@H](CC(=O)O)NC(=O)[C@H](Cc3ccc(OCC(=O)O)cc3)NC(=O)[C@H](CCc3ccccc3)NC(=O)CSC[C@@H](C(=O)N[C@@H](CCN)C(=O)NCCCCCCCCCCC(=O)O)NC(=O)[C@H](CO)NC(=O)[C@H](C(C)C)NC(=O)[C@H](CC3CCCCC3)NC(=O)[C@H](CCN)NC(=O)[C@@H](CC(C)C)NC(=O)[C@H](C)N(C)C(=O)[C@H](Cc3ccc(O)cc3)NC(=O)[C@H](Cc3ccc(-c4ccccc4)cc3)NC(=O)[C@H](Cc3ccc(OCC(=O)O)cc3)NC2=O)c1 [Example 1276] ({CH2CO}-[hPhe]Y(Carboxymethyl)D[Phe(3-Me)]Y(Carboxymethyl)[Bip]Y[NMeA][dL][Dab][Cha]VSC[Dab][Aun]-OH; thioether N-14)
Second: Cc1cccc(C[C@@H]2NC(=O)[C@H](CC(=O)O)NC(=O)[C@H](Cc3ccc(OCC(=O)O)cc3)NC(=O)[C@H](Cc3cccnc3)NC(=O)CSC[C@@H](C(=O)N[C@@H](CCN)C(=O)NCCCCCCCCCCC(=O)O)NC(=O)[C@H](CO)NC(=O)[C@H](C(C)C)NC(=O)[C@H](CC3CCCCC3)NC(=O)[C@H](CCN)NC(=O)[C@@H](CC(C)C)NC(=O)[C@H](C)N(C)C(=O)[C@H](Cc3ccc(O)cc3)NC(=O)[C@H](Cc3ccc(-c4ccccc4)cc3)NC(=O)[C@H](Cc3ccc(OCC(=O)O)cc3)NC2=O)c1 [Example 1278] ({CH2CO}-[3Pal]Y(Carboxymethyl)D[Phe(3-Me)]Y(Carboxymethyl)[Bip]Y[NMeA][dL][Dab][Cha]VSC[Dab][Aun]-OH; thioether N-14)
The IC50 of the first is 4.3-fold higher: 142 nM for the first, 33.4 nM for the second.

Compared with `Cc1cccc(C[C@@H]2NC(=O)[C@H](CC(=O)O)NC(=O)[C@H](Cc3ccc(OCC(=O)O)cc3)NC(=O)[C@H](Cc3ccc(C(N)=O)cc3)NC(=O)CSC[C@@H](C(=O)N[C@@H](CCN)C(=O)NCCCCCCCCCCC(=O)O)NC(=O)[C@H](CO)NC(=O)[C@H](C(C)C)NC(=O)[C@H](CC3CCCCC3)NC(=O)[C@H](CCN)NC(=O)[C@@H](CC(C)C)NC(=O)[C@H](C)N(C)C(=O)[C@H](Cc3ccc(O)cc3)NC(=O)[C@H](Cc3ccc(-c4ccccc4)cc3)NC(=O)[C@H](Cc3ccc(OCC(=O)O)cc3)NC2=O)c1` [Example 1277] ({CH2CO}-[Phe(4-CONH2)]Y(Carboxymethyl)D[Phe(3-Me)]Y(Carboxymethyl)[Bip]Y[NMeA][dL][Dab][Cha]VSC[Dab][Aun]-OH; thioether N-14), `Cc1cccc(C[C@@H]2NC(=O)[C@H](CC(=O)O)NC(=O)[C@H](Cc3ccc(OCC(=O)O)cc3)NC(=O)[C@H](Cc3ccc(N)cc3)NC(=O)CSC[C@@H](C(=O)N[C@@H](CCN)C(=O)NCCCCCCCCCCC(=O)O)NC(=O)[C@H](CO)NC(=O)[C@H](C(C)C)NC(=O)[C@H](CC3CCCCC3)NC(=O)[C@H](CCN)NC(=O)[C@@H](CC(C)C)NC(=O)[C@H](C)N(C)C(=O)[C@H](Cc3ccc(O)cc3)NC(=O)[C@H](Cc3ccc(-c4ccccc4)cc3)NC(=O)[C@H](Cc3ccc(OCC(=O)O)cc3)NC2=O)c1` [Example 1279] ({CH2CO}-[Phe(4-NH2)]Y(Carboxymethyl)D[Phe(3-Me)]Y(Carboxymethyl)[Bip]Y[NMeA][dL][Dab][Cha]VSC[Dab][Aun]-OH; thioether N-14) is 1.6-fold higher in IC50: 24.6 nM for the first, 39.3 nM for the second. The first is the more potent here.

`Cc1cccc(C[C@@H]2NC(=O)[C@H](CC(=O)O)NC(=O)[C@H](Cc3ccc(OCC(=O)O)cc3)NC(=O)[C@H](Cc3cncn3C)NC(=O)CSC[C@@H](C(=O)N[C@@H](CCN)C(=O)NCCCCCCCCCCC(=O)O)NC(=O)[C@H](CO)NC(=O)[C@H](C(C)C)NC(=O)[C@H](CC3CCCCC3)NC(=O)[C@H](CCN)NC(=O)[C@@H](CC(C)C)NC(=O)[C@H](C)N(C)C(=O)[C@H](Cc3ccc(O)cc3)NC(=O)[C@H](Cc3ccc(-c4ccccc4)cc3)NC(=O)[C@H](Cc3ccc(OCC(=O)O)cc3)NC2=O)c1` [Example 1281] ({CH2CO}-[His(π-Me)]Y(Carboxymethyl)D[Phe(3-Me)]Y(Carboxymethyl)[Bip]Y[NMeA][dL][Dab][Cha]VSC[Dab][Aun]-OH; thioether N-14) and `Cc1cccc(C[C@@H]2NC(=O)[C@H](CC(=O)O)NC(=O)[C@H](Cc3ccc(C(=O)O)cc3)NC(=O)[C@H](Cc3cccnc3)NC(=O)CSC[C@@H](C(=O)N[C@@H](CCN)C(=O)NCCCCCCCCCCC(=O)O)NC(=O)[C@H](CO)NC(=O)[C@H](C(C)(C)O)NC(=O)[C@H](CC3CCCCC3)NC(=O)[C@H](CCN)NC(=O)[C@@H](CC(C)C)NC(=O)[C@H](C)N(C)C(=O)[C@H](Cc3ccc(OCC(=O)O)cc3)NC(=O)[C@H](Cc3ccc(-c4ccccc4)cc3)NC(=O)[C@H](Cc3ccc(OCC(=O)O)cc3)NC2=O)c1` [Example 1283] ({CH2CO}-[3Pal][Phe(4-COOH)]D[Phe(3-Me)]Y(Carboxymethyl)[Bip]Y(Carboxymethyl)[NMeA][dL][Dab][Cha][Val(3-OH)]SC[Dab][Aun]-OH; thioether N-14) are within 1.5-fold of each other in IC50: 22.1 nM for the first, 15.9 nM for the second.

First: Cc1cccc(C[C@@H]2NC(=O)[C@H](CC(=O)O)NC(=O)[C@H](Cc3ccc(C(=O)O)cc3)NC(=O)[C@H](Cc3ccncc3)NC(=O)CSC[C@@H](C(=O)N[C@@H](CCN)C(=O)NCCCCCCCCCCC(=O)O)NC(=O)[C@H](CO)NC(=O)[C@H](C(C)(C)O)NC(=O)[C@H](CC3CCCCC3)NC(=O)[C@H](CCN)NC(=O)[C@@H](CC(C)C)NC(=O)[C@H](C)N(C)C(=O)[C@H](Cc3ccc(OCC(=O)O)cc3)NC(=O)[C@H](Cc3ccc(-c4ccccc4)cc3)NC(=O)[C@H](Cc3ccc(OCC(=O)O)cc3)NC2=O)c1 [Example 1282] ({CH2CO}-[4Pal][Phe(4-COOH)]D[Phe(3-Me)]Y(Carboxymethyl)[Bip]Y(Carboxymethyl)[NMeA][dL][Dab][Cha][Val(3-OH)]SC[Dab][Aun]-OH; thioether N-14)
Second: Cc1cccc(C[C@@H]2NC(=O)[C@H](CC(=O)O)NC(=O)[C@H](Cc3ccc(C(=O)O)cc3)NC(=O)[C@H](Cc3cccs3)NC(=O)CSC[C@@H](C(=O)N[C@@H](CCN)C(=O)NCCCCCCCCCCC(=O)O)NC(=O)[C@H](CO)NC(=O)[C@H](C(C)(C)O)NC(=O)[C@H](CC3CCCCC3)NC(=O)[C@H](CCN)NC(=O)[C@@H](CC(C)C)NC(=O)[C@H](C)N(C)C(=O)[C@H](Cc3ccc(OCC(=O)O)cc3)NC(=O)[C@H](Cc3ccc(-c4ccccc4)cc3)NC(=O)[C@H](Cc3ccc(OCC(=O)O)cc3)NC2=O)c1 [Example 1284] ({CH2CO}-[2Thi][Phe(4-COOH)]D[Phe(3-Me)]Y(Carboxymethyl)[Bip]Y(Carboxymethyl)[NMeA][dL][Dab][Cha][Val(3-OH)]SC[Dab][Aun]-OH; thioether N-14)
The IC50 of the first is 2.3-fold lower: 7.2 nM for the first, 16.9 nM for the second.

Going from `Cc1cccc(C[C@@H]2NC(=O)[C@H](CC(=O)O)NC(=O)[C@H](Cc3ccc(OCC(=O)O)cc3)NC(=O)[C@H](Cc3cccs3)NC(=O)CSC[C@@H](C(=O)N[C@@H](CCN)C(=O)NCCCCCCCCCCC(=O)O)NC(=O)[C@H](CO)NC(=O)[C@H](C(C)(C)O)NC(=O)[C@H](CC3CCCCC3)NC(=O)[C@H](CCN)NC(=O)[C@@H](CC(C)C)NC(=O)[C@H](C)N(C)C(=O)[C@H](Cc3ccc(OCC(=O)O)cc3)NC(=O)[C@H](Cc3ccc(-c4ccccc4)cc3)NC(=O)[C@H](Cc3ccc(OCC(=O)O)cc3)NC2=O)c1` [Example 1285] ({CH2CO}-[2Thi]Y(Carboxymethyl)D[Phe(3-Me)]Y(Carboxymethyl)[Bip]Y(Carboxymethyl)[NMeA][dL][Dab][Cha][Val(3-OH)]SC[Dab][Aun]-OH; thioether N-14) to `COc1ccc(C[C@@H]2NC(=O)CSC[C@@H](C(=O)N[C@@H](CCN)C(=O)NCCCCCCCCCCC(=O)O)NC(=O)[C@H](CO)NC(=O)[C@H](C(C)(C)O)NC(=O)[C@H](CC3CCCCC3)NC(=O)[C@H](CCN)NC(=O)[C@@H](CC(C)C)NC(=O)[C@H](C)N(C)C(=O)[C@H](Cc3ccc(OCC(=O)O)cc3)NC(=O)[C@H](Cc3ccc(-c4ccccc4)cc3)NC(=O)[C@H](Cc3ccc(OCC(=O)O)cc3)NC(=O)[C@H](Cc3cccc(C)c3)NC(=O)[C@H](CC(=O)O)NC(=O)[C@H](Cc3ccc(OCC(=O)O)cc3)NC2=O)cc1` [Example 1286] ({CH2CO}-Y(Me)Y(Carboxymethyl)D[Phe(3-Me)]Y(Carboxymethyl)[Bip]Y(Carboxymethyl)[NMeA][dL][Dab][Cha][Val(3-OH)]SC[Dab][Aun]-OH; thioether N-14), the IC50 falls from 29.2 nM to 19.2 nM (1.5-fold). The second is the more potent here.

Source: patent US20260070945A1, “MACROCYCLIC IMMUNOMODULATORS” (Bristol-Myers Squibb Company, priority 2022, published 2026)
